# Starred links: 1 amine or outer side, 2 acyl side, 3 side chain; linkers in the order of their positions; H or OH if unused. Non-standard residues stand in square brackets, D forms with d. Residues, ends and D or L forms follow the SMILES beside them. Trp(4-Cl)(βS-Me) = C[C@@H](c1c[nH]c2cccc(Cl)c12)[C@H](N)C(=O)O; dPro(4R-(4-pyridylmethyl)) = O=C(O)[C@H]1C[C@@H](Cc2ccncc2)CN1; Trp(βS-Me,4-F) = C[C@@H](c1c[nH]c2cccc(F)c12)[C@H](N)C(=O)O; Bip(4'-COOH) = N[C@@H](Cc1ccc(-c2ccc(C(=O)O)cc2)cc1)C(=O)O; Ala(1-bicyclo(1.1.1)pentyl) = N[C@@H](CC12CC(C1)C2)C(=O)O; dPro(4R-Bzl(4-F)) = O=C(O)[C@H]1C[C@@H](Cc2ccc(F)cc2)CN1; Phe(2-Cl,4-COOH) = N[C@@H](Cc1ccc(C(=O)O)cc1Cl)C(=O)O; X4 = O=C([C@H]1[C@@H](Cc2ccncc2)CCN1[*:1])[*:2]; X9 = O=C([C@H]1[C@@H](Cc2cncnc2)CCN1[*:1])[*:2]; Ala(piperazin-1-yl) = N[C@@H](CN1CCNCC1)C(=O)O; Ala(pyrimidin-5-yl) = N[C@@H](Cc1cncnc1)C(=O)O; Phe(4-CONH2) = NC(=O)c1ccc(C[C@H](N)C(=O)O)cc1; Phe(4-COOH) = N[C@@H](Cc1ccc(C(=O)O)cc1)C(=O)O; Bip = N[C@@H](Cc1ccc(-c2ccccc2)cc1)C(=O)O; Pro(cis-4-F) = O=C(O)[C@@H]1C[C@H](F)CN1; AEF = NCCOc1ccc(C[C@H](N)C(=O)O)cc1; Dap(CONH2) = NC(=O)NC[C@H](N)C(=O)O; cisHyp = O=C(O)[C@@H]1C[C@H](O)CN1; d(αMeD) = C[C@@](N)(CC(=O)O)C(=O)O; 4Pal = N[C@@H](Cc1ccncc1)C(=O)O; aThr = C[C@H](O)[C@H](N)C(=O)O; NMeDab = CN[C@@H](CCN)C(=O)O; Dab = NCC[C@H](N)C(=O)O; Aib = CC(C)(N)C(=O)O
# Biological target: T1, IL-1β (Homo sapiens, UniProt P01584)
# T1 construct: purchased BioLegend 579404
# T1 sequence (P01584 117-269): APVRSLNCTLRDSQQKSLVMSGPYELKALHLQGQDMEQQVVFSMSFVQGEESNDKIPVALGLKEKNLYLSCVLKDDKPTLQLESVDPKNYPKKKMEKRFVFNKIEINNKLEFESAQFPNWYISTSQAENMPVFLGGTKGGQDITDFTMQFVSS
# Test: IL-6 assay in MRC5 cells: inhibition of IL-1β induced IL-6 secretion (AlphaLISA)
# Type: cell-based
# Details: inhibition of IL-1β induced IL-6 secretion in MRC5 cells; compound pre-incubated 1 hour with recombinant human IL-1β; read-out: MRC5 IC50
# Outline: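 Compound was pre-incubated 1 h at ambient temperature with recombinant human IL-1β at 2λ EC80 before adding human lung fibroblast MRC5 cells (3000/well) in EMEM with 0.025% BSA. After overnight culture at 37 °C, 5% CO2, secreted IL-6 in conditioned medium was measured by AlphaLISA; IC50 from 4-parameter logistic fits.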
row,IC50 [nM],Structure (SMILES)
1,0.03,"C[C@@H](c1c[nH]c2cccc(F)c12)[C@@H]1NC(=O)[C@@H]2C[C@H](F)CN2C(=O)CNC(=O)[C@H](Cc2ccc(C(=O)O)cc2)NC(=O)[C@H](Cc2ccncc2)NC(=O)[C@H](Cc2ccc(-c3ccccc3)cc2)NC(=O)[C@H]2C[C@@H](Cc3ccncc3)CN2C(=O)CNC(=O)[C@H](CNC(N)=O)NC(=O)[C@H](CCC(N)=O)NC(=O)[C@@H](CCCCN)NC(=O)[C@@](C)(CC(=O)O)NC(=O)[C@H](Cc2c[nH]c3ccccc23)NC(=O)[C@H](CO)NC(=O)C(C)(C)NC1=O [Example 244] (cyclo([Bip][4Pal][Phe(4-COOH)]G[Pro(cis-4-F)][Trp(βS-Me,4-F)][Aib]SW[d(αMeD)][dK]Q[Dap(CONH2)]G[dPro(4R-(4-pyridylmethyl))]))"
2,0.027,"C[C@@H](c1c[nH]c2cccc(F)c12)[C@@H]1NC(=O)[C@@H]2C[C@H](F)CN2C(=O)CNC(=O)[C@H](Cc2ccc(C(=O)O)cc2)NC(=O)[C@H](Cc2ccncc2)NC(=O)[C@H](Cc2ccc(-c3ccccc3)cc2)NC(=O)[C@H]2C[C@@H](Cc3ccncc3)CN2C(=O)CNC(=O)[C@H](CCN)NC(=O)[C@H](CCC(N)=O)NC(=O)[C@@H](CCC(=O)O)NC(=O)C(C)(C)NC(=O)[C@H](Cc2c[nH]c3ccccc23)NC(=O)[C@H](CO)NC(=O)C(C)(C)NC1=O [Example 250] (cyclo([Bip][4Pal][Phe(4-COOH)]G[Pro(cis-4-F)][Trp(βS-Me,4-F)][Aib]SW[Aib][dE]Q[Dab]G[dPro(4R-(4-pyridylmethyl))]))"
3,0.015,C[C@H](O)[C@@H]1NC(=O)[C@@](C)(CC(=O)O)NC(=O)[C@H](Cc2c[nH]c3ccccc23)NC(=O)[C@H](CO)NC(=O)C(C)(C)NC(=O)[C@H]([C@@H](C)c2c[nH]c3cccc(Cl)c23)NC(=O)[C@@H]2C[C@H](F)CN2C(=O)CNC(=O)[C@H](Cc2ccc(C(=O)O)cc2)NC(=O)[C@H](Cc2ccncc2)NC(=O)[C@H](Cc2ccc(-c3ccccc3)cc2)NC(=O)[C@H]2C[C@@H](Cc3ccncc3)CN2C(=O)CNC(=O)[C@H](CCN)NC(=O)[C@H](CCC(N)=O)NC1=O [Example 289] (cyclo([Bip][4Pal][Phe(4-COOH)]G[Pro(cis-4-F)][Trp(4-Cl)(βS-Me)][Aib]SW[d(αMeD)][aThr]Q[Dab]G[dPro(4R-(4-pyridylmethyl))]))
4,0.02,"C[C@@H](c1c[nH]c2cccc(F)c12)[C@@H]1NC(=O)[C@@H]2C[C@H](F)CN2C(=O)CNC(=O)[C@H](Cc2ccc(C(=O)O)cc2)NC(=O)[C@H](Cc2ccncc2)NC(=O)[C@H](Cc2ccc(-c3ccc(C(=O)O)cc3)cc2)NC(=O)[C@H]2C[C@@H](Cc3ccncc3)CN2C(=O)CNC(=O)[C@H](CCN)N(C)C(=O)[C@H](CCC(N)=O)NC(=O)[C@H](Cc2cncnc2)NC(=O)C(C)(C)NC(=O)[C@H](Cc2c[nH]c3ccccc23)NC(=O)[C@H](CO)NC(=O)C(C)(C)NC1=O [Example 262] (cyclo([Bip(4'-COOH)][4Pal][Phe(4-COOH)]G[Pro(cis-4-F)][Trp(βS-Me,4-F)][Aib]SW[Aib][Ala(pyrimidin-5-yl)]Q[NMeDab]G[dPro(4R-(4-pyridylmethyl))]))"

# Same assay, conditions: inhibition of IL-1β induced IL-6 secretion in MRC5 cells; read-out: MRC5 IC50
row,IC50 [nM],Structure (SMILES)
1,0.036,"CC(=O)NCCOc1ccc(C[C@@H]2NC(=O)[C@H]3C[C@@H](Cc4ccncc4)CN3C(=O)CNC(=O)[C@H](CCN)N(C)C(=O)[C@H](CCC(N)=O)NC(=O)[C@H](Cc3cncnc3)NC(=O)C(C)(C)NC(=O)[C@H](Cc3c[nH]c4ccccc34)NC(=O)[C@H](CO)NC(=O)C(C)(C)NC(=O)[C@H]([C@@H](C)c3c[nH]c4cccc(F)c34)NC(=O)[C@@H]3C[C@H](F)CN3C(=O)CNC(=O)[C@H](Cc3ccc(C(N)=O)cc3)NC(=O)[C@H](Cc3ccncc3)NC2=O)cc1 [Example 218] (cyclo([4Pal][Phe(4-CONH2)]G[Pro(cis-4-F)][Trp(βS-Me,4-F)][Aib]SW[Aib][Ala(pyrimidin-5-yl)]Q[NMeDab]G[dPro(4R-(4-pyridylmethyl))][AEF](Ac)))"
2,0.011,"C[C@H](O)[C@@H]1NC(=O)[C@@](C)(CC(=O)O)NC(=O)[C@H](Cc2c[nH]c3ccccc23)NC(=O)[C@H](CO)NC(=O)C(C)(C)NC(=O)[C@H]([C@@H](C)c2c[nH]c3cccc(F)c23)NC(=O)[C@@H]2C[C@H](F)CN2C(=O)CNC(=O)[C@H](Cc2ccc(C(=O)O)cc2)NC(=O)[C@H](Cc2ccncc2)NC(=O)[C@H](Cc2ccc(-c3ccc(C(=O)O)cc3)cc2)NC(=O)[C@H]2C[C@@H](Cc3ccncc3)CN2C(=O)CNC(=O)[C@H](CCN)NC(=O)[C@H](CCC(N)=O)NC1=O [Example 359] (cyclo([Bip(4'-COOH)][4Pal][Phe(4-COOH)]G[Pro(cis-4-F)][Trp(βS-Me,4-F)][Aib]SW[d(αMeD)][aThr]Q[Dab]G[dPro(4R-(4-pyridylmethyl))]))"
3,0.014,"C[C@@H](c1c[nH]c2cccc(F)c12)[C@@H]1NC(=O)[C@@H]2C[C@H](F)CN2C(=O)CNC(=O)[C@H](Cc2ccc(C(=O)O)cc2)NC(=O)[C@H](Cc2ccncc2)NC(=O)[C@H](Cc2ccc(-c3ccc(C(=O)O)cc3)cc2)NC(=O)[C@H]2C[C@@H](Cc3ccc(F)cc3)CN2C(=O)CNC(=O)[C@H](CCN)NC(=O)[C@H](CCC(N)=O)NC(=O)[C@H](CN2CCNCC2)NC(=O)C(C)(C)NC(=O)[C@H](Cc2c[nH]c3ccccc23)NC(=O)[C@H](CCC(=O)O)NC(=O)C(C)(C)NC1=O [Example 120] (cyclo([Bip(4'-COOH)][4Pal][Phe(4-COOH)]G[Pro(cis-4-F)][Trp(βS-Me,4-F)][Aib]EW[Aib][Ala(piperazin-1-yl)]Q[Dab]G[dPro(4R-Bzl(4-F))]))"
4,0.013,"C[C@H](O)[C@@H]1NC(=O)[C@@](C)(CC(=O)O)NC(=O)[C@H](Cc2c[nH]c3ccccc23)NC(=O)[C@H](CO)NC(=O)C(C)(C)NC(=O)[C@H]([C@@H](C)c2c[nH]c3cccc(Cl)c23)NC(=O)[C@@H]2C[C@H](F)CN2C(=O)CNC(=O)[C@H](Cc2ccc(C(=O)O)cc2Cl)NC(=O)[C@H](Cc2ccncc2)NC(=O)[C@H](Cc2ccc(-c3ccc(C(=O)O)cc3)cc2)NC(=O)[C@H]2C[C@@H](Cc3ccncc3)CN2C(=O)CNC(=O)[C@H](CCN)NC(=O)[C@H](CCC(N)=O)NC1=O [Example 355] (cyclo([Bip(4'-COOH)][4Pal][Phe(2-Cl,4-COOH)]G[Pro(cis-4-F)][Trp(4-Cl)(βS-Me)][Aib]SW[d(αMeD)][aThr]Q[Dab]G[dPro(4R-(4-pyridylmethyl))]))"
5,0.034,C[C@@H](c1c[nH]c2cccc(Cl)c12)[C@@H]1NC(=O)[C@@H]2C[C@H](F)CN2C(=O)CNC(=O)[C@H](Cc2ccc(C(=O)O)cc2)NC(=O)[C@H](Cc2ccncc2)NC(=O)[C@H](Cc2ccc(-c3ccc(C(=O)O)cc3)cc2)NC(=O)[C@H]2C[C@@H](Cc3ccc(F)cc3)CN2C(=O)CNC(=O)[C@H](CCN)NC(=O)[C@H](CCC(N)=O)NC(=O)[C@H](Cc2cncnc2)NC(=O)C(C)(C)NC(=O)[C@H](Cc2c[nH]c3ccccc23)NC(=O)[C@H](CO)NC(=O)C(C)(C)NC1=O [Example 139] (cyclo([Bip(4'-COOH)][4Pal][Phe(4-COOH)]G[Pro(cis-4-F)][Trp(4-Cl)(βS-Me)][Aib]SW[Aib][Ala(pyrimidin-5-yl)]Q[Dab]G[dPro(4R-Bzl(4-F))]))
6,0.058,"C[C@@H](c1c[nH]c2cccc(F)c12)[C@@H]1NC(=O)[C@@H]2C[C@H](F)CN2C(=O)CNC(=O)[C@H](Cc2ccc(C(=O)O)cc2)NC(=O)[C@H](Cc2ccncc2)NC(=O)[C@H](Cc2ccc(-c3ccc(C(=O)O)cc3)cc2)NC(=O)[C@H]2[C@@H](Cc3cncnc3)CCN2C(=O)CNC(=O)[C@H](CCN)NC(=O)[C@H](CCC(N)=O)NC(=O)[C@H](Cc2cncnc2)NC(=O)C(C)(C)NC(=O)[C@H](Cc2c[nH]c3ccccc23)NC(=O)[C@H](CCC(=O)O)NC(=O)C(C)(C)NC1=O [Example 71] (cyclo([Bip(4'-COOH)][4Pal][Phe(4-COOH)]G[Pro(cis-4-F)][Trp(βS-Me,4-F)][Aib]EW[Aib][Ala(pyrimidin-5-yl)]Q[Dab]G[X9]))"
7,0.023,"C[C@@H](c1c[nH]c2cccc(F)c12)[C@@H]1NC(=O)[C@@H]2C[C@H](O)CN2C(=O)CNC(=O)[C@H](Cc2ccc(C(=O)O)cc2)NC(=O)[C@H](CC23CC(C2)C3)NC(=O)[C@H](Cc2ccc(-c3ccc(C(=O)O)cc3)cc2)NC(=O)[C@H]2C[C@@H](Cc3ccncc3)CN2C(=O)CNC(=O)[C@H](CCN)NC(=O)[C@H](CCC(N)=O)NC(=O)[C@H](Cc2cncnc2)NC(=O)[C@@](C)(CC(=O)O)NC(=O)[C@H](Cc2c[nH]c3ccccc23)NC(=O)[C@H](CO)NC(=O)C(C)(C)NC1=O [Example 160] (cyclo([Bip(4'-COOH)][Ala(1-bicyclo(1.1.1)pentyl)][Phe(4-COOH)]G[cisHyp][Trp(βS-Me,4-F)][Aib]SW[d(αMeD)][Ala(pyrimidin-5-yl)]Q[Dab]G[dPro(4R-(4-pyridylmethyl))]))"
8,0.038,"C[C@@H](c1c[nH]c2cccc(F)c12)[C@@H]1NC(=O)[C@@H]2C[C@H](O)CN2C(=O)CNC(=O)[C@H](Cc2ccc(C(=O)O)cc2)NC(=O)[C@H](CC23CC(C2)C3)NC(=O)[C@H](Cc2ccc(-c3ccc(C(=O)O)cc3)cc2)NC(=O)[C@H]2C[C@@H](Cc3ccncc3)CN2C(=O)CNC(=O)[C@H](CO)NC(=O)[C@H](CCC(N)=O)NC(=O)[C@H](Cc2cncnc2)NC(=O)[C@@](C)(CC(=O)O)NC(=O)[C@H](Cc2c[nH]c3ccccc23)NC(=O)[C@H](CO)NC(=O)C(C)(C)NC1=O [Example 157] (cyclo([Bip(4'-COOH)][Ala(1-bicyclo(1.1.1)pentyl)][Phe(4-COOH)]G[cisHyp][Trp(βS-Me,4-F)][Aib]SW[d(αMeD)][Ala(pyrimidin-5-yl)]QSG[dPro(4R-(4-pyridylmethyl))]))"
9,0.027,"C[C@@H](c1c[nH]c2cccc(F)c12)[C@@H]1NC(=O)[C@@H]2C[C@H](O)CN2C(=O)CNC(=O)[C@H](Cc2ccc(C(=O)O)cc2)NC(=O)[C@H](Cc2ccncc2)NC(=O)[C@H](Cc2ccc(-c3ccc(C(=O)O)cc3)cc2)NC(=O)[C@H]2[C@@H](Cc3ccncc3)CCN2C(=O)CNC(=O)[C@H](CCN)NC(=O)[C@H](CCC(N)=O)NC(=O)[C@H](Cc2cncnc2)NC(=O)C(C)(C)NC(=O)[C@H](Cc2c[nH]c3ccccc23)NC(=O)[C@H](CO)NC(=O)C(C)(C)NC1=O [Example 325] (cyclo([Bip(4'-COOH)][4Pal][Phe(4-COOH)]G[cisHyp][Trp(βS-Me,4-F)][Aib]SW[Aib][Ala(pyrimidin-5-yl)]Q[Dab]G[X4]))"

# Reference: US20260242419A1, “A CYCLIC PEPTIDE FOR TRAPPING INTERLEUKIN-1 BETA” (Merck Sharp & Dohme LLC, priority 2023, published 2026)
